In data set [1] the test system is Mycosphaerella graminicola; Anamorph: Septoria tritici. The experiment in a line: Leaf Blotch of Wheat fungicidal activity (SEPTTR). It is filed as in vivo. Conditions: Zymoseptoria tritici; for pest or weed control at 100 ppm: rate 100 ppm; for pest or weed control at 121.5 g/ha: rate 121.5 g/H. The procedure, abridged:
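Acetone solutions diluted with nine volumes of water containing 110 ppm Triton X-100, sprayed to run-off on first-leaf wheat seedlings (Yuma), inoculated with S. tritici before or after treatment. Plants held in dew chambers, then in a 20 °C greenhouse. Disease severity (0–100%) scored when untreated plants fully symptomatic; % control relative to untreated.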

In data set [2] the test system is Puccinia triticina. As to the kind of experiment: Wheat Brown Rust fungicidal activity (PUCCRT). It is filed as in vivo. Conditions: Puccinia triticina; for pest or weed control at 100 ppm: rate 100 ppm; for pest or weed control at 121.5 g/ha: rate 121.5 g/H. The procedure, abridged: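 Yuma wheat seedlings at first-leaf stage sprayed to run-off (acetone solution in water with 110 ppm Triton X-100) or track-sprayed as EC with 0.1% Trycol 5941; inoculated with P. triticina spores before or after treatment. Overnight dark dew at 22° C., then greenhouse 24° C.; disease severity 0–100% gives percent control vs untreated.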

The mark [3] stands for this setting: 24 h, 1 Day Protectant, read-out: Disease control SEPTTR 1DP.
Setting [4] is: 72 h, 3 Day Curative, read-out: Disease control SEPTTR 3DC.
The mark [5] stands for this setting: 24 h, 1 Day Protectant, read-out: Disease control PUCCRT 1DP.
Setting [6] is: 72 h, 3 Day Curative, read-out: Disease control PUCCRT 3DC.

Usually melting point stands for the temperature of the solid-liquid transition.

Read-outs that look alike come from different tables or passages of the source.

As to `CCCCCO[C@@H]1[C@@H](Cc2cccc3ccccc23)COC[C@H](NC(=O)c2nccc(OC)c2O)C(=O)O[C@H]1C` [Compound F7], the melting point lay in the range of 116 to 120 °C. In addition, the pest or weed control at 100 ppm in data set [1] (setting [3]) was in the range of 80 to 100%. Further, the pest or weed control at 100 ppm in data set [1] (setting [4]) is 0 to 80%. For the same compound, the pest or weed control at 100 ppm in data set [2] (setting [5]) is 80 to 100%. The pest or weed control at 100 ppm in data set [2] (setting [6]) was in the range of 0 to 80%.

The compound `COc1ccnc(C(=O)N[C@H]2COC[C@H](Cc3cccc4ccccc34)[C@@H](Oc3ccc(C)cc3)[C@H](C)OC2=O)c1O` [Compound F8] gave a melting point of 94 to 98 °C. Moreover, the pest or weed control at 100 ppm in data set [1] (setting [3]) was in the range of 80 to 100%. For the same compound, the pest or weed control at 100 ppm in data set [1] (setting [4]) lay in the range of 0 to 80%. Also, in data set [2] (setting [5]), the pest or weed control at 100 ppm was 80 to 100%. In addition, in data set [2] (setting [6]), the pest or weed control at 100 ppm was 0 to 80%.

As for `COc1ccnc(C(=O)N[C@H]2COC[C@H](Cc3cccc4ccccc34)[C@@H](OC3CCCC3)[C@H](C)OC2=O)c1O` [Compound F9], the melting point lay within 78 to 85 °C. In data set [1] (setting [3]), the pest or weed control at 100 ppm was in the range of 80 to 100%. Besides, the pest or weed control at 100 ppm in data set [1] (setting [4]) lay within 80 to 100%. Also, in data set [2] (setting [5]), the pest or weed control at 100 ppm was in the range of 80 to 100%.

The compound `COc1ccnc(C(=O)N[C@H]2COC[C@H](Cc3cccc4ccccc34)[C@@H](OCC(C)C)[C@H](C)OC2=O)c1O` [Compound F10] returned a melting point of 78 to 80 °C. In addition, the pest or weed control at 100 ppm in data set [1] (setting [3]) fell in the range of 80 to 100%. In addition, the pest or weed control at 100 ppm in data set [1] (setting [4]) fell in the range of 0 to 80%. In data set [2] (setting [5]), the pest or weed control at 100 ppm lay in the range of 80 to 100%.

As for `CCCCCO[C@@H]1[C@@H](Cc2ccc(C)cc2)COC[C@H](NC(=O)c2nccc(OC)c2O)C(=O)O[C@H]1C` [Compound F11], the melting point is 97 to 99 °C. Also, in data set [1] (setting [3]), the pest or weed control at 100 ppm lay in the range of 80 to 100%. Also, the pest or weed control at 100 ppm in data set [1] (setting [4]) is 80 to 100%. For the same compound, in data set [2] (setting [5]), the pest or weed control at 100 ppm was 80 to 100%. Moreover, the pest or weed control at 100 ppm in data set [2] (setting [6]) was in the range of 0 to 80%.

For the compound `COc1ccnc(C(=O)N[C@H]2COC[C@H](Cc3ccc(C)cc3)[C@@H](OC(=O)C(C)C)[C@H](C)OC2=O)c1O` [Compound F12], the melting point is 67 to 72 °C. The pest or weed control at 100 ppm in data set [1] (setting [3]) was 80 to 100%. Further, in data set [1] (setting [4]), the pest or weed control at 100 ppm lay within 80 to 100%. The pest or weed control at 100 ppm in data set [2] (setting [5]) was 80 to 100%. The pest or weed control at 100 ppm in data set [2] (setting [6]) fell in the range of 80 to 100%.

For `COc1ccnc(C(=O)N[C@H]2COC[C@H](Cc3ccc(F)cc3)[C@@H](OC(=O)C3CC3)[C@H](C)OC2=O)c1O` [Compound F13], the melting point was in the range of 68 to 73 °C. Moreover, the pest or weed control at 100 ppm in data set [1] (setting [3]) lay in the range of 80 to 100%. For the same compound, the pest or weed control at 100 ppm in data set [1] (setting [4]) was 80 to 100%. Also, the pest or weed control at 100 ppm in data set [2] (setting [5]) lay in the range of 80 to 100%. Further, the pest or weed control at 100 ppm in data set [2] (setting [6]) is 80 to 100%.

For `COc1ccnc(C(=O)N[C@H]2COC[C@H](Cc3ccc(F)cc3)[C@@H](OC(=O)C(C)C)[C@H](C)OC2=O)c1O` [Compound F14], the melting point was in the range of 66 to 71 °C. Besides, in data set [1] (setting [3]), the pest or weed control at 100 ppm is 80 to 100%. Besides, the pest or weed control at 100 ppm in data set [1] (setting [4]) lay within 80 to 100%. Also, in data set [2] (setting [5]), the pest or weed control at 100 ppm lay within 80 to 100%. Besides, the pest or weed control at 100 ppm in data set [2] (setting [6]) is 80 to 100%.

`COc1ccnc(C(=O)N[C@H]2COC[C@H](Cc3ccc(Cl)cc3Cl)[C@@H](OC(=O)C(C)C)[C@H](C)OC2=O)c1O` [Compound F41] came in with a melting point of 79 to 82 °C. Besides, the pest or weed control at 100 ppm in data set [1] (setting [3]) was 80 to 100%. Further, in data set [1] (setting [4]), the pest or weed control at 100 ppm lay in the range of 80 to 100%. Also, the pest or weed control at 100 ppm in data set [2] (setting [5]) was 80 to 100%.

In the case of `COc1ccnc(C(=O)N[C@H]2COC[C@H](Cc3ccc(Cl)cc3Cl)[C@@H](OCC(C)C)[C@H](C)OC2=O)c1O` [Compound F42], the melting point lay within 60 to 64 °C. Besides, in data set [1] (setting [3]), the pest or weed control at 100 ppm was 80 to 100%. In addition, in data set [1] (setting [4]), the pest or weed control at 100 ppm is 80 to 100%. Further, the pest or weed control at 100 ppm in data set [2] (setting [5]) is 80 to 100%. The pest or weed control at 100 ppm in data set [2] (setting [6]) is 80 to 100%.

`CCCCCO[C@@H]1[C@@H](Cc2ccc(Cl)cc2Cl)COC[C@H](NC(=O)c2nccc(OC)c2O)C(=O)O[C@H]1C` [Compound F43] registered a melting point of 50 to 54 °C. For the same compound, the pest or weed control at 100 ppm in data set [1] (setting [3]) lay within 80 to 100%. In addition, the pest or weed control at 100 ppm in data set [1] (setting [4]) lay in the range of 0 to 80%. Besides, the pest or weed control at 100 ppm in data set [2] (setting [5]) is 0 to 80%.

`COc1ccnc(C(=O)N[C@H]2COC[C@H](CC3CCCC3)[C@@H](OC(=O)C(C)C)[C@H](C)OC2=O)c1O` [Compound F45] had a melting point of 55 to 59 °C. The pest or weed control at 100 ppm in data set [1] (setting [3]) fell in the range of 80 to 100%. Further, the pest or weed control at 100 ppm in data set [1] (setting [4]) lay in the range of 80 to 100%. Further, in data set [2] (setting [5]), the pest or weed control at 100 ppm fell in the range of 80 to 100%. In addition, the pest or weed control at 100 ppm in data set [2] (setting [6]) lay in the range of 0 to 80%.

Compound `COc1ccnc(C(=O)N[C@H]2COC[C@H](CC3CCCC3)[C@@H](OCC(C)C)[C@H](C)OC2=O)c1O` [Compound F46] registered a melting point of 132 to 134 °C. Also, the pest or weed control at 100 ppm in data set [1] (setting [3]) lay within 80 to 100%. Also, in data set [1] (setting [4]), the pest or weed control at 100 ppm lay in the range of 80 to 100%. The pest or weed control at 100 ppm in data set [2] (setting [5]) was in the range of 80 to 100%. In data set [2] (setting [6]), the pest or weed control at 100 ppm was in the range of 80 to 100%.

On to `CCCCCO[C@@H]1[C@@H](CC2CCCC2)COC[C@H](NC(=O)c2nccc(OC)c2O)C(=O)O[C@H]1C` [Compound F47], for which the melting point lay within 109 to 111 °C. For the same compound, the pest or weed control at 100 ppm in data set [1] (setting [3]) is 80 to 100%. Further, the pest or weed control at 100 ppm in data set [1] (setting [4]) fell in the range of 80 to 100%. Also, in data set [2] (setting [5]), the pest or weed control at 100 ppm was in the range of 80 to 100%. Besides, the pest or weed control at 100 ppm in data set [2] (setting [6]) fell in the range of 80 to 100%.

Consider `COc1ccnc(C(=O)N[C@H]2COC[C@H](CCc3ccccc3)[C@@H](OCCCC(F)(F)F)[C@H](C)OC2=O)c1OC(C)=O` [Compound F49], for which the melting point was in the range of 59 to 64 °C. In data set [1] (setting [3]), the pest or weed control at 100 ppm lay in the range of 80 to 100% and the pest or weed control at 121.5 g/ha lay within 80 to 100%. In data set [1] (setting [4]), the pest or weed control at 100 ppm was 80 to 100% and the pest or weed control at 121.5 g/ha lay in the range of 80 to 100%. In addition, in data set [2] (setting [5]), the pest or weed control at 100 ppm was in the range of 80 to 100% and the pest or weed control at 121.5 g/ha was 80 to 100%. Moreover, in data set [2] (setting [6]), the pest or weed control at 100 ppm was in the range of 80 to 100% and the pest or weed control at 121.5 g/ha lay within 0 to 80%.

`COc1ccnc(C(=O)N[C@H]2COC[C@H](CCc3ccccc3)[C@@H](OCC(C)C)[C@H](C)OC2=O)c1OC(C)=O` [Compound F50] registered a melting point of 61 to 65 °C. The pest or weed control at 100 ppm in data set [1] (setting [3]) fell in the range of 80 to 100%. Besides, the pest or weed control at 100 ppm in data set [1] (setting [4]) is 80 to 100%. Moreover, the pest or weed control at 100 ppm in data set [2] (setting [5]) lay within 80 to 100%. The pest or weed control at 100 ppm in data set [2] (setting [6]) was in the range of 80 to 100%.

Compound `COc1ccnc(C(=O)N[C@H]2COC[C@H](Cc3cccc4ccccc34)[C@@H](OC(=O)C(C)C)[C@H](C)OC2=O)c1OC(C)=O` [Compound F51, (3S,6S,7R,8S)-3-(3-acetoxy-4-methoxypicolinamido)-6-methyl-8-(naphthalen-1-ylmethyl)-4-oxo-1,5-dioxonan-7-yl isobutyrate] came in with a melting point of 104 to 108 °C. Further, in data set [1] (setting [3]), the pest or weed control at 100 ppm lay in the range of 80 to 100%. Moreover, the pest or weed control at 100 ppm in data set [1] (setting [4]) fell in the range of 80 to 100%. Also, the pest or weed control at 100 ppm in data set [2] (setting [5]) lay within 80 to 100%. Also, in data set [2] (setting [6]), the pest or weed control at 100 ppm is 0 to 80%.

`CCCCCO[C@@H]1[C@@H](Cc2cccc3ccccc23)COC[C@H](NC(=O)c2nccc(OC)c2OC(C)=O)C(=O)O[C@H]1C` [Compound F52] had a melting point of 85 to 91 °C. Besides, in data set [1] (setting [3]), the pest or weed control at 100 ppm fell in the range of 80 to 100%. Also, the pest or weed control at 100 ppm in data set [1] (setting [4]) was in the range of 80 to 100%. In addition, the pest or weed control at 100 ppm in data set [2] (setting [5]) was 80 to 100%. For the same compound, the pest or weed control at 100 ppm in data set [2] (setting [6]) is 0 to 80%.
